Laboratory results as given in patent publication US20250127913A1, “BIFUNCTIONAL FOLATE RECEPTOR BINDING COMPOUNDS” (LYCIA THERAPEUTICS, INC., priority 2021, published 2025).

How the values were obtained:
[1] = test system: TNFα trimer complex to folate receptor (FOLR2); assay: SPR co-engagement of compound-TNFα trimer complex to folate receptor; conditions: TNFα + 10 nM compound binding FOLR2
Method: The active (Flow cell 2) surfaces of a Cytiva CM5 Series S Sensor Chip functionalized with FOLR2 as described in Example 58. Example compounds were diluted to 10 nM with 50 and 100 nM TNFα single chain trimer or 150 nM and 300 nM TNFα native monomer in running buffer (10 mM HEPES, 150 mM NaCl, 0.05% T20, pH 7.5, 2% DMSO), allowed to incubate for 5 hours at 25° C. and then flowed over the active and reference surfaces for 110 s, and then allowed to dissociate in running buffer for 600 s, at a flow rate of 30 μL/min. The FOLR2 immobilized active surface and the reference surface were regenerated with a 30 s pulse of 4M MgCl2 at 30 μL/min then allowed to equilibrate 240 s. Sensorgrams were solvent corrected, double-referenced, and the data fitted and analyzed in Biacore Insight Evaluation Software Version 3.0.11.15423.

TNFα trimer = TNFα trimer (Homo sapiens, UniProt P01375); assay: SPR binding kinetics of compounds to TNFα trimer; conditions: class symbols
TNFα trimer, sequence (P01375 77-233 limits assumed): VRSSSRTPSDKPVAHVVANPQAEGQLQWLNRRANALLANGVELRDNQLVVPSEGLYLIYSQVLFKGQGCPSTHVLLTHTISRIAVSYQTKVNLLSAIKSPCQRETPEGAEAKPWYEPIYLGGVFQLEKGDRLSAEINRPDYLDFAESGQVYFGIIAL

FOLR2 = FOLR2 (Homo sapiens (Human), UniProt P14207); assay: SPR binding kinetics of compounds to folate receptor (FOLR2 immobilized on CM5 chip)
FOLR2, sequence (P14207 17-255): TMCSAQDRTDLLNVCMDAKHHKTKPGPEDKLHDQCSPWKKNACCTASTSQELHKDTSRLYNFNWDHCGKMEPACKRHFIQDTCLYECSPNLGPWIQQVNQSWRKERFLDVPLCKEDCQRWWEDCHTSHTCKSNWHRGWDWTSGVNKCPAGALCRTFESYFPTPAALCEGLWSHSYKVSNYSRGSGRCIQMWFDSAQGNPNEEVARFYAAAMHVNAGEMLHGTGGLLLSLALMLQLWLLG

THP-1 cells = assay: Compound mediated uptake of TNFα-pHrodo in THP-1 cells (flow cytometry); assay type: cell-based; parameters: key to Uptake in THP1 cells (run) 2 / Uptake in THP1 cells (run) 3 / Uptake in THP1 cells (run) 4: + = ΔMFI less than that of I-17; ++ = ΔMFI ≈ to that of I-17; +++ = ΔMFI greater than that of I-17; conditions: ΔMFI compared with I-17, uptake at 10 μM

**Q.** `Cc1nc2cc(F)c(-c3cnc(OCCCCCn4cc(COCCOCCOCCOCCOCCOCCNC(=O)CC[C@H](NC(=O)c5ccc(NCc6cnc7nc(N)nc(O)c7n6)cc5)C(=O)O)nn4)nc3)nc2c(N[C@H](C)c2cc(C#N)ccc2F)c1Cl` [Compound I-18, (S)-24-(4-(((2-amino-4-hydroxypteridin-6-yl)methyl)amino)benzamido)-1-(1-(5-((5-(7-chloro-8-((I-1-(5-cyano-2-fluorophenyl)ethyl)amino)-3-fluoro-6-methyl-1,5-naphthyridin-2-yl)pyrimidin-2-yl)oxy)pentyl)-1H-1,2,3-triazol-4-yl)-21-oxo-2,5,8,11,14,17-hexaoxa-20-azapentacosan-25-oic acid] was tested. Which “co-engagement / complex formation observed on SPR” value [1] did it give?
**A.** complex formation observed

**Q.** And the Kd (TNFα trimer)?
**A.** < 100 nM

**Q.** And the Kd (FOLR2)?
**A.** 0.4 nM

**Q.** And the “Uptake in THP1 cells (run) 2” value (THP-1 cells)?
**A.** +++

**Q.** What about the “Uptake in THP1 cells (run) 3” value (THP-1 cells) of the same compound?
**A.** ++

**Q.** And the “Uptake in THP1 cells (run) 4” value (THP-1 cells)?
**A.** +++

**Q.** Which “co-engagement / complex formation observed on SPR” value [1] does the source give for `Cc1nc2cc(F)c(-c3cnc(OCCCCCn4cc(COCCOCCOCCOCCOCCOCCOCCOCCOCCOCCNC(=O)CC[C@H](NC(=O)c5ccc(NCc6cnc7nc(N)nc(O)c7n6)cc5)C(=O)O)nn4)nc3)nc2c(N[C@H](C)c2cc(C#N)ccc2F)c1Cl` [Compound I-20, (S)-36-(4-(((2-amino-4-hydroxypteridin-6-yl)methyl)amino)benzamido)-1-(1-(5-((5-(7-chloro-8-(((R)-1-(5-cyano-2-fluorophenyl)ethyl)amino)-3-fluoro-6-methyl-1,5-naphthyridin-2-yl)pyrimidin-2-yl)oxy)pentyl)-1H-1,2,3-triazol-4-yl)-33-oxo-2,5,8,11,14,17,20,23,26,29-decaoxa-32-azaheptatriacontan-37-oic acid] here?
**A.** complex formation observed

**Q.** What about the Kd (TNFα trimer) of the same compound?
**A.** < 1000 nM

**Q.** What about the Kd (FOLR2) of the same compound?
**A.** 0.2 nM

**Q.** And the “Uptake in THP1 cells (run) 2” value (THP-1 cells)?
**A.** +++

**Q.** What about the “Uptake in THP1 cells (run) 3” value (THP-1 cells) of the same compound?
**A.** +

**Q.** And the “Uptake in THP1 cells (run) 4” value (THP-1 cells)?
**A.** ++
